Activity calls are given as the source filed them. The calls are words filed in the database; no cut-off is given here.
How the values were obtained:
T47D = test: Cytotoxicity against human T47D cells at 5 uM by MTT assay; type: functional
HCC1954 [1] = test: Cytotoxicity against human HCC1954 cells at 10 uM by MTT assay; type: functional
[2] = molecular target: Cyclin-dependent kinase 5/CDK5 activator 1 (Homo sapiens) (UniProt Q00535+Q15078); test: Inhibition of human CDK5/p25 using histone H1 as substrate in presence of [gamma33P]ATP after 30 mins by scintillation counting method; type: protein-complex assay
[3] = molecular target: T1, Serine/threonine-protein kinase haspin (Homo sapiens) (UniProt Q8TF76); test: Inhibition of human HASPIN
T1 sequence (whole entry): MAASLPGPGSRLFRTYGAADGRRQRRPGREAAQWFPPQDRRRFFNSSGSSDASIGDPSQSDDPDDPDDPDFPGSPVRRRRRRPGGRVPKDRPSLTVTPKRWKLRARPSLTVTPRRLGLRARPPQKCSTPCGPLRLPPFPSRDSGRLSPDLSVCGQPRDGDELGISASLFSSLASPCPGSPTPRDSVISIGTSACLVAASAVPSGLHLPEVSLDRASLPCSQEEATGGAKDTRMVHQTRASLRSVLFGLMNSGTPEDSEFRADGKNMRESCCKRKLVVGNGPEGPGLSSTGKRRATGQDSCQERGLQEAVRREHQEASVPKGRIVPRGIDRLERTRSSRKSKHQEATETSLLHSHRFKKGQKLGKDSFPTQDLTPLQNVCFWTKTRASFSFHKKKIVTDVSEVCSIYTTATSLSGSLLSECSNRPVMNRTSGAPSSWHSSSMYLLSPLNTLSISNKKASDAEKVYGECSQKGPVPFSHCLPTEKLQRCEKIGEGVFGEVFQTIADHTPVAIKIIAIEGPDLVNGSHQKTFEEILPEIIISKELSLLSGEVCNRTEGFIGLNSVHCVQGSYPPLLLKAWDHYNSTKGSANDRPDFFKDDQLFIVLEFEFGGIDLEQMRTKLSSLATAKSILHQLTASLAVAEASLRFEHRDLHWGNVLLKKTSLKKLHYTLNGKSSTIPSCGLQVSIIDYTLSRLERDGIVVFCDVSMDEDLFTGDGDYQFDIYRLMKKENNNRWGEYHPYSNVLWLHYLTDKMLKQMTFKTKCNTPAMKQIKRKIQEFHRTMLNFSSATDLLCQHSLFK

[4] = molecular target: Vascular endothelial growth factor receptor 2 (Homo sapiens) (UniProt P35968); test: Inhibition of recombinant human GST-tagged VEGFR-2 (789-end residues) transphosphorylation activity expressed in baculovirus infected Sf9 cells using poly[Glu:Tyr] (4:1) as substrate after 60 mins
[5] = Cmax in NOD/SCID mouse at 0.5 mg/kg, po administered as single dose by LC-MS/MS method; type: ADME, organism-based; set-up: dose 0.5 mg/kg, route oral; conditions: in vivo
[6] = Cmax in NOD/SCID mouse at 0.5 mg/kg, ip administered as single dose by LC-MS/MS method; type: ADME, organism-based; set-up: dose 0.5 mg/kg, route intraperitoneal; conditions: in vivo
[7] = Tmax in NOD/SCID mouse at 0.5 mg/kg, po administered as single dose by LC-MS/MS method; type: ADME, organism-based; conditions: in vivo
[8] = AUC (0 to 8 hrs) in NOD/SCID mouse at 0.5 mg/kg, po administered as single dose by LC-MS/MS method; type: ADME, organism-based; set-up: time < 8 hr, dose 0.5 mg/kg, route oral; conditions: in vivo
[9] = AUC (0 to 8 hrs) in NOD/SCID mouse at 0.5 mg/kg, ip administered as single dose by LC-MS/MS method; type: ADME, organism-based; set-up: dose 0.5 mg/kg, time < 8 hr, route intraperitoneal; conditions: in vivo
Mus musculus [10] = test: Toxicity in NOD/SCID mouse assessed as phenotypic changes at 0.5 mg/kg, ip administered as single dose; type: organism-based; conditions: in vivo
[11] = Cmax in NOD/SCID mouse at 10 mg/kg, ip administered twice by LC-MS/MS method; type: ADME, organism-based; set-up: dose 10 mg/kg, route intraperitoneal; conditions: in vivo
HCC1954 [12] = test: Anti-tumor activity against HER2-amplified human HCC1954 cells xenografted in NOD/SCID mouse assessed as tumor size at 10 mg/kg, ip administered once daily for 18 days measured after 1 hr last dose (reference value: 497 +/- 82 mm3); type: functional
Mus musculus [13] = test: In vivo inhibition of SRC phosphorylation in NOD/SCID mouse tumor xenografted with HER2-amplified human HCC1954 cells at 10 mg/kg, ip administered once daily for 18 days measured after 1 hr last dose; type: functional, organism-based
[14] = molecular target: Tyrosine-protein kinase BTK (Homo sapiens) (UniProt Q06187); test: Inhibition of human wild type full length BTK (M1 to S659 residues) expressed in mammalian expression system at 10 uM by KinomeScan method relative to control
[15] = molecular target: Mitogen-activated protein kinase 3 (Homo sapiens) (UniProt P27361); test: Inhibition of human wild type full length ERK1 (M1 to P379 residues) expressed in bacterial expression system at 10 uM by KinomeScan method relative to control
[16] = molecular target: Mitogen-activated protein kinase 1 (Homo sapiens) (UniProt P28482); test: Inhibition of human wild type full length ERK2 (M1 to S360 residues) expressed in bacterial expression system at 10 uM by KinomeScan method relative to control
[17] = molecular target: Focal adhesion kinase 1 (Homo sapiens) (UniProt Q05397); test: Inhibition of human wild type partial length FAK (D402 to R696 residues) expressed in bacterial expression system at 10 uM by KinomeScan method relative to control
[18] = molecular target: Tyrosine-protein kinase Fyn (Homo sapiens) (UniProt P06241); test: Inhibition of human wild type partial length FYN (T243 to L534 residues) expressed in bacterial expression system at 10 uM by KinomeScan method relative to control
[19] = molecular target: Insulin-like growth factor 1 receptor (Homo sapiens) (UniProt P08069); test: Inhibition of human wild type partial length IGF1R (L972 to D1294 residues) expressed in bacterial expression system at 10 uM by KinomeScan method relative to control
[20] = molecular target: Tyrosine-protein kinase ITK/TSK (Homo sapiens) (UniProt Q08881); test: Inhibition of human wild type partial length ITK (R335 to L620 residues) expressed in bacterial expression system at 10 uM by KinomeScan method relative to control
[21] = molecular target: Hepatocyte growth factor receptor (Homo sapiens) (UniProt P08581); test: Inhibition of human wild type partial length MET (D1010 to S1367 residues) expressed in bacterial expression system at 10 uM by KinomeScan method relative to control
[22] = molecular target: Vascular endothelial growth factor receptor 2 (Homo sapiens) (UniProt P35968); test: Inhibition of human wild type partial length VEGFR2 (R787 to P1253 residues) expressed in mammalian expression system at 10 uM by KinomeScan method relative to control
[23] = molecular target: Tyrosine-protein kinase ZAP-70 (Homo sapiens) (UniProt P43403); test: Inhibition of human wild type partial length ZAP70 (D20 to G299 residues) expressed in mammalian expression system at 10 uM by KinomeScan method relative to control
Mus musculus [24] = test: In vivo inhibition of SRC phosphorylation at Tyr-416 residue in NOD/SCID mouse tumor xenografted with HER2-amplified human HCC1954 cells at 10 mg/kg, ip administered once daily for 18 days measured after 1 hr last dose by […]; type: functional, organism-based

Sequence of Vascular endothelial growth factor receptor 2 (Homo sapiens) (P35968 whole entry, the tested form may be a part): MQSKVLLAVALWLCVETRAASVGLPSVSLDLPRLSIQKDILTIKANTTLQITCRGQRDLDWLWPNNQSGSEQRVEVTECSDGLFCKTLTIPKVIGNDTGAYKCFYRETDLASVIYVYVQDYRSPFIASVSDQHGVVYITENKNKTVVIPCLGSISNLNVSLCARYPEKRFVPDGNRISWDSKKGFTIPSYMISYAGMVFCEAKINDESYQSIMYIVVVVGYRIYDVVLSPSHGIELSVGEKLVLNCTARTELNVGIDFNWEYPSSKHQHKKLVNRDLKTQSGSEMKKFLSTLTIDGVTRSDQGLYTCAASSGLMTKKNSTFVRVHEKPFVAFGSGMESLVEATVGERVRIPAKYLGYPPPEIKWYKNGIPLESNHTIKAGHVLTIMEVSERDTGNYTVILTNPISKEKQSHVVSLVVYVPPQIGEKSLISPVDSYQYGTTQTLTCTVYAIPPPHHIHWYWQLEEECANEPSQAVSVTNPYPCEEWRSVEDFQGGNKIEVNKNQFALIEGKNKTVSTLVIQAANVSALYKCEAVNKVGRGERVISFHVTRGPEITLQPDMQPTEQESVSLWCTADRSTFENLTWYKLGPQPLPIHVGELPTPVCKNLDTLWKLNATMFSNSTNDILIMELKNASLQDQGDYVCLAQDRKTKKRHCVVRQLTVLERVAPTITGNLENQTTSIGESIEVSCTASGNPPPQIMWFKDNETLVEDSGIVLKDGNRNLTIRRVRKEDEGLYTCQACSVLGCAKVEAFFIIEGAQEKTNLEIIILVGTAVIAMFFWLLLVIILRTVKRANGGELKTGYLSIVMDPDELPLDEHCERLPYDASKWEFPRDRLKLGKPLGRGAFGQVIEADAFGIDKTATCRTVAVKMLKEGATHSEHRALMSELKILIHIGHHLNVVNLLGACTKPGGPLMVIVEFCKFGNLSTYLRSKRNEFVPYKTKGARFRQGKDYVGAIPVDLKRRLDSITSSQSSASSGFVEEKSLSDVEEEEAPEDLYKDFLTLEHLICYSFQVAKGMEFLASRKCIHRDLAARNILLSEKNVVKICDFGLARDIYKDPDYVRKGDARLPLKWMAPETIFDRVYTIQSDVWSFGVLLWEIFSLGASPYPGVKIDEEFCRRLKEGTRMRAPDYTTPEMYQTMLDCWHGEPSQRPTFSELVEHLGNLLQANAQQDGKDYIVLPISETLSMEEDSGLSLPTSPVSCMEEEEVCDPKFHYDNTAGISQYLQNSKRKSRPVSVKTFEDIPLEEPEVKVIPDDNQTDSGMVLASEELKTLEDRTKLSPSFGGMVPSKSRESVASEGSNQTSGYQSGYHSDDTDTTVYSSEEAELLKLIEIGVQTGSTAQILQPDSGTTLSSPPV
Sequence of Tyrosine-protein kinase Fyn (Homo sapiens) (P06241 2-537 limits assumed): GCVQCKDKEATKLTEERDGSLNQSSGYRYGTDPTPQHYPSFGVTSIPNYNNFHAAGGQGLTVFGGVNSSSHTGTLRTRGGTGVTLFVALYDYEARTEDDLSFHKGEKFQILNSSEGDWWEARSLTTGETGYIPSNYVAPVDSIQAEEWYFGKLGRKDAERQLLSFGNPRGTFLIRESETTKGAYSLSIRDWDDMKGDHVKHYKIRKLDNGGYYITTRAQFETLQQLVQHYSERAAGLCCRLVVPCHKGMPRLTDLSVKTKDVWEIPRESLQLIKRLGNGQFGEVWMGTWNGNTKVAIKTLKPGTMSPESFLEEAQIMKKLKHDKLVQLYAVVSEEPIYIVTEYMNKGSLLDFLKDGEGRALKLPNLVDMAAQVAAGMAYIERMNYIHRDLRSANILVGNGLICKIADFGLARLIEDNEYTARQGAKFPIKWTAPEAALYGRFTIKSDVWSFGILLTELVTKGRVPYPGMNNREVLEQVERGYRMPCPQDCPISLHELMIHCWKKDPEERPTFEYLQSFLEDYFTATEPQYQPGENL
Sequence of Mitogen-activated protein kinase 3 (Homo sapiens) (P27361 whole entry, the tested form may be a part): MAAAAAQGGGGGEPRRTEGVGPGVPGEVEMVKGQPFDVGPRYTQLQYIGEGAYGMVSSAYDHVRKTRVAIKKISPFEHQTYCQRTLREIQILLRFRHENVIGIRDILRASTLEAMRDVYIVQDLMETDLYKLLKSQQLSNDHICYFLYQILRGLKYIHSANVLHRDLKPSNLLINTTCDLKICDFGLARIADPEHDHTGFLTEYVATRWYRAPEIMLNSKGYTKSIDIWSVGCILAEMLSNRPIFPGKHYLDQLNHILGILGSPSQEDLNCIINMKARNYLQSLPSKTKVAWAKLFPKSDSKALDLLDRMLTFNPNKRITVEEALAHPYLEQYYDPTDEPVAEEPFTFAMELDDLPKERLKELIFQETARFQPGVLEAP
Sequence of Tyrosine-protein kinase ITK/TSK (Homo sapiens) (Q08881 whole entry, the tested form may be a part): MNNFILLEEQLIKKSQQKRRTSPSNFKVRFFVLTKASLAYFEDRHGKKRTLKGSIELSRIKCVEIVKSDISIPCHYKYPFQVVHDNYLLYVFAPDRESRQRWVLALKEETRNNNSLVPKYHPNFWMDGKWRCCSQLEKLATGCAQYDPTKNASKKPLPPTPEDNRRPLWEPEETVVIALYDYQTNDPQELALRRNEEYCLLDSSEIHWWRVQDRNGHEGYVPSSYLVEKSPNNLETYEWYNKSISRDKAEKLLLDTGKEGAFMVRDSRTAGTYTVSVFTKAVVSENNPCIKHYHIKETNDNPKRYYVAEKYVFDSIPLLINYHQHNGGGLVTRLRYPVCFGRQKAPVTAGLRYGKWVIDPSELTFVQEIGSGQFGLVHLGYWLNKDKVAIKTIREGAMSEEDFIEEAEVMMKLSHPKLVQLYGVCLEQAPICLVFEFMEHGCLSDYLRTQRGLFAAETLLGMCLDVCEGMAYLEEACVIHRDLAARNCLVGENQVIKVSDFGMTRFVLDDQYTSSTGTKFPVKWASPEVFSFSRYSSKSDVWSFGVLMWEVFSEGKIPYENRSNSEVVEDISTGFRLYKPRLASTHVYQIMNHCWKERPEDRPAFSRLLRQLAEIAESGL
Sequence of Cyclin-dependent kinase 5/CDK5 activator 1 (Homo sapiens) (Q00535 whole entry): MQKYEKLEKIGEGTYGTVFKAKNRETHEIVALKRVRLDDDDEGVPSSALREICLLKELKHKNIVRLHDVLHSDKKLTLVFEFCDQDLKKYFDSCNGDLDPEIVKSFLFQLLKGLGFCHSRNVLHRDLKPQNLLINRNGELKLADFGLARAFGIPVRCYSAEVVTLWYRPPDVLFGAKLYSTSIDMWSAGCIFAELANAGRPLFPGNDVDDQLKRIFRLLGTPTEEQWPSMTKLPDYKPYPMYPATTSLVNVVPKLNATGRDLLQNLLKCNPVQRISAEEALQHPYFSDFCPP
Sequence of Cyclin-dependent kinase 5/CDK5 activator 1 (Homo sapiens) (Q15078 99-307 partner limits assumed): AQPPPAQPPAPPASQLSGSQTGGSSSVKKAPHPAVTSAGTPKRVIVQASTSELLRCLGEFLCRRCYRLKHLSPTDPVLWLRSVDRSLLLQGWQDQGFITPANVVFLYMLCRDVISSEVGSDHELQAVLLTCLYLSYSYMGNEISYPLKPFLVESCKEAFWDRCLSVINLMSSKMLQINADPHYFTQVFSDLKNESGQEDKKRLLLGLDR
Sequence of Tyrosine-protein kinase BTK (Homo sapiens) (Q06187 whole entry, the tested form may be a part): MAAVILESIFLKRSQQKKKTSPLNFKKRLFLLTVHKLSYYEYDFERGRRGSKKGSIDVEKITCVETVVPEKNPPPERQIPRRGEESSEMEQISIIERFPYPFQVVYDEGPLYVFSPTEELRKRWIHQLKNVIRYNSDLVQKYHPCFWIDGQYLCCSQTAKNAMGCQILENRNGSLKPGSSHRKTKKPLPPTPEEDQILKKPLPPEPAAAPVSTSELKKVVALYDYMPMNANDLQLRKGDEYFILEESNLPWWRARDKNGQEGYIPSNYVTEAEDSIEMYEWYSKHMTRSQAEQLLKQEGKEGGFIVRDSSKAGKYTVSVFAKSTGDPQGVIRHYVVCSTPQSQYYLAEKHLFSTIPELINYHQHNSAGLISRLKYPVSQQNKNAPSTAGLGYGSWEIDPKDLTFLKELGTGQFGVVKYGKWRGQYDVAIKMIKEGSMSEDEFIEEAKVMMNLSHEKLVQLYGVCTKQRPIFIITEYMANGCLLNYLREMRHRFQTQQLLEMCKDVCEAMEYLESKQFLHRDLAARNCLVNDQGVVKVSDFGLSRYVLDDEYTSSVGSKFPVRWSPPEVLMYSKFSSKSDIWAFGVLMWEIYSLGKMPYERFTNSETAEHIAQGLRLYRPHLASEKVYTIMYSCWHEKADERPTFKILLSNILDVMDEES
Sequence of Tyrosine-protein kinase ZAP-70 (Homo sapiens) (P43403 whole entry, the tested form may be a part): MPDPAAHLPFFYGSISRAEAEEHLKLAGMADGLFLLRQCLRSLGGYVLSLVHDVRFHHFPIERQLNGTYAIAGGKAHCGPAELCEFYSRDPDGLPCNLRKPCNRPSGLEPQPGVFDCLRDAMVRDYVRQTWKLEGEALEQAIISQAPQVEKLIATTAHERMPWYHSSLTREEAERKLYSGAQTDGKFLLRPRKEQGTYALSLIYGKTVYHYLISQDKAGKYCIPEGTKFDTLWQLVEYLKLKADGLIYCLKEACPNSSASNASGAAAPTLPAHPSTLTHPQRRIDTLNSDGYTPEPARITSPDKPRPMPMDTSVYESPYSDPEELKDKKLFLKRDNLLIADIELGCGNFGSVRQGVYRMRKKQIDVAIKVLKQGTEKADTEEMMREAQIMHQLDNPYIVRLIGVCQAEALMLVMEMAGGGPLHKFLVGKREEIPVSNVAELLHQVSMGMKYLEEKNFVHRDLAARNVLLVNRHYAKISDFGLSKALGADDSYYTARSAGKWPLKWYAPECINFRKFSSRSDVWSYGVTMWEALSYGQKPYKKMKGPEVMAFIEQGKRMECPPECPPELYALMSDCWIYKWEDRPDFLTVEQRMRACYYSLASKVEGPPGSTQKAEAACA

- inhibition [2]: inactive
- inhibition [3]: inactive
- inhibition [4]: inactive
- Cmax [5]: 470 nM
- Cmax [6]: 820 nM
- Tmax [7]: 1 h
- AUC(0-t) at 8 h [8]: 1.53 µM·h
- AUC(0-t) at 8 h [9]: 2.85 µM·h
- Cmax [11]: 6450 nM
- inhibition [14]: 10%
- inhibition [15]: 11%
- inhibition [16]: 0%
- inhibition [17]: 0%
- inhibition [18]: 6%
- inhibition [19]: 6%
- inhibition [20]: 5%
- inhibition [21]: 40%
- inhibition [22]: 1%
- inhibition [23]: 0%
SMILES: Cc1nc2nc(Sc3ccccc3)cnc2cc1NC(=O)Nc1ccccc1
- Activity (T47D): >50%
- Activity (HCC1954 [1]): >50%
- Activity (Mus musculus [10]): Non-Toxic
- Activity (HCC1954 [12]): 150 mm3
- inhibition (Mus musculus [13]): Active
- inhibition (Mus musculus [24]): Active

From ChEMBL document CHEMBL4000195, “Design and synthesis of novel 7-aminosubstituted pyrido[2,3-b]pyrazines exhibiting anti-breast cancer activity” (Eur J Med Chem, 2017)
